Data taken from patent publication US12269831B2, “Modulators of cystic fibrosis transmembrane conductance regulator” (Vertex Pharmaceuticals Incorporated, priority 2020, dated 2025).
Where two headings read alike, the source gives them in different places. Values belong to the compound of their own block, whether it stands above or below them.

How the values were obtained:
[1] = 14-membered ring
[2] = target: T1, CFTR (F508del/MF-HBE cells) (Homo sapiens, UniProt P13569, DEL508-508); assay: Ussing chamber assay of CFTR-mediated short-circuit currents (potentiator identification); type: cell-based; details: CFTR-mediated Isc, 18-24 h incubation at 37° C. with 10 μM (14S)-8-[3-(2-{dispiro[2.0.2.1]heptan-7-yl}ethoxy)-1H-pyrazol-1-yl]-... corrector, 20% human serum
T1 construct: human bronchial epithelial (HBE) cells derived from CF subjects heterozygous for F508del and a minimal function CFTR mutation (F508del/MF-HBE); endogenous in cells; host or cells: primary human bronchial epithelial (HBE) cells from CF subjects, genotype F508del/minimal function
Method: Ussing Chamber Assay of CFTR-Mediated Short-Circuit Currents
Ussing chamber experiments were performed using human bronchial epithelial (HBE) cells derived from CF subjects heterozygous for F508del and a minimal function CFTR mutation (F508del/MF-HBE) and cultured as previously described (Neuberger T, Burton B, Clark H, Van Goor F Methods Mol Biol 2011:741:39-54). After four days the apical media was removed, and the cells were grown at an air liquid interface for >14 days prior to use.
To isolate the CFTR-mediated short-circuit (Isc) current, F508del/MF-HBE grown on Costar® Snapwell™ cell culture inserts were mounted in an Ussing chamber and the transepithelial ISC was measured under voltage-clamp recording conditions (Vhold=0 mV) at 37° C. The basolateral solution contained (in mM) 145 NaCl, 0.83 K2HPO4, 3.3 KH2PO4, 1.2 MgCl2, 1.2 CaCl2, 10 Glucose, 10 HEPES (pH adjusted to 7.4 with NaOH) and the apical solution contained (in mM) 145 NaGluconate, 1.2 MgCl2, 1.2 CaCl2, 10 glucose, 10 HEPES (pH adjusted to 7.4 with NaOH) and 30 μM amiloride to block the epithelial sodium channel. Forskolin (20 μM) was added to the apical surface to activate CFTR, followed by apical addition of a CFTR inhibitor cocktail consisting of BPO, GlyH-101 and CFTR inhibitor 172 (each at 20 μM final assay concentration) to specifically isolate CFTR currents. The CFTR-mediated Isc (μA/cm^2) for each condition was determined from the peak forskolin response to the steady-state current following inhibition.
Identification of Potentiator Compounds
The activity of the CFTR potentiator compounds on the CFTR-mediated Isc was determined in Ussing chamber studies as described above. The F508del/MF-HBE cell cultures were incubated with the potentiator compounds at a range of concentrations in combination with 10 μM (14S)-8-[3-(2-{dispiro[2.0.2.1]heptan-7-yl}ethoxy)-1H-pyrazol-1-yl]-12,12-dimethyl-2λ^6-thia-3,9,11,18,23-pentaazatetracyclo[17.3.1.111,14.05,10]tetracosa-1(22),5,7,9,19(23),20-hexaene-2,2,4-trione for 18-24 hours at 37° C. and in the presence of 20% human serum. The concentration of potentiator compounds and (14S)-8-[3-(2-{dispiro[2.0.2.1]heptan-7-yl}ethoxy)-1H-pyrazol-1-yl]-12,12-dimethyl-2λ^6-thia-3,9,11,18,23-pentaazatetracyclo[17.3.1.111,14.05,10]tetracosa-1(22),5,7,9,19(23),20-hexaene-2,2,4-trione used during the 18-24 hours incubations was kept constant throughout the Ussing chamber measurement of the CFTR-mediated Isc to ensure compounds were present throughout the entire experiment. The efficacy and potency of the putative F508del potentiators was compared to that of the known Vertex potentiator, ivacaftor (N-[2,4-bis(1,1-dimethylethyl)-5-hydroxyphenyl]-1,4-dihydro-4-oxoquinoline-3-carboxamide).

T1 sequence (P13569 with tags, fused parts or gaps DEL508-508): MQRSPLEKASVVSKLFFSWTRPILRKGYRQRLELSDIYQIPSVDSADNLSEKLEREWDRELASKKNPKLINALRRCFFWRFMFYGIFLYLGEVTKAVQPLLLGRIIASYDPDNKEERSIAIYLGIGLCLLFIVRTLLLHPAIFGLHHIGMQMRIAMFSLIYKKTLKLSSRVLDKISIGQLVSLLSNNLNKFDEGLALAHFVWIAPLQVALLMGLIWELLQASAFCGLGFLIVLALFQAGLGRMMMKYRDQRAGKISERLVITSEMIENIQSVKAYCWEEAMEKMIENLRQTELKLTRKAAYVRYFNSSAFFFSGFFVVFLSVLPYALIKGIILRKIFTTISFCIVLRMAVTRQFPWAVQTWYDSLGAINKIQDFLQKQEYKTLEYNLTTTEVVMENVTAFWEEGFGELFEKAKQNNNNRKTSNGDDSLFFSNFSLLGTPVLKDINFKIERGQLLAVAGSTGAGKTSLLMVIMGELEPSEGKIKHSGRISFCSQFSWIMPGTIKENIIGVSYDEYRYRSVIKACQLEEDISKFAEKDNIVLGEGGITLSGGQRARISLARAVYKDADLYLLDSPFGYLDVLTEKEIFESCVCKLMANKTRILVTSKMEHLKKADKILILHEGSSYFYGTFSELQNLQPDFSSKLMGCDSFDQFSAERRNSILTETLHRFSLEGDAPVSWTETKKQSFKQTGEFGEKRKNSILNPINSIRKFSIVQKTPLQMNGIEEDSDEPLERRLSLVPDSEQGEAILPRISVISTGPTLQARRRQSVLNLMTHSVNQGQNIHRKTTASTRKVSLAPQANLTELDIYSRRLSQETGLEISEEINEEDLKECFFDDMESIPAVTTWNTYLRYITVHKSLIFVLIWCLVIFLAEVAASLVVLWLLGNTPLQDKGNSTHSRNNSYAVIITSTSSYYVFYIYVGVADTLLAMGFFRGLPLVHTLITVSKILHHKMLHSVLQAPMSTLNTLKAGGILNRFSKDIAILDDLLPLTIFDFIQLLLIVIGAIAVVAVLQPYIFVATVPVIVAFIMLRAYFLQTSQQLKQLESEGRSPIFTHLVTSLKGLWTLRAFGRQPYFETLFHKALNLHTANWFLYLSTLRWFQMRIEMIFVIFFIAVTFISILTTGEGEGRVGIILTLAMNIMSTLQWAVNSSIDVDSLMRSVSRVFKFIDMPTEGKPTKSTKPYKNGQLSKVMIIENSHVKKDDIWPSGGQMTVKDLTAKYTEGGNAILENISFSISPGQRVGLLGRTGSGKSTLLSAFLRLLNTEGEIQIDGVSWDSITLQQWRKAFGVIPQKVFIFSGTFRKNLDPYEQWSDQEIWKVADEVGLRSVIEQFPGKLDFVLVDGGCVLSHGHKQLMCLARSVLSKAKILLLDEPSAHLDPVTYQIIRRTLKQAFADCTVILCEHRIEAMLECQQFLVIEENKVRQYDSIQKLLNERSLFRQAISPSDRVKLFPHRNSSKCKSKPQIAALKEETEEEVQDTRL

Compound: C[C@@H]1CCCOCC(OCc2ccccc2)(C(F)(F)F)C2=NN=C(O2)c2nc(c(C(F)(F)F)cc2N(C(=O)OC(C)(C)C)C(=O)OC(C)(C)C)O1 (stereo partly shown)
ring closure, isolated yield ([1]; from C[C@H](O)CCCOCC(OCc1ccccc1)(c1nnc(-c2nc(O)c(C(F)(F)F)cc2N(C(=O)OC(C)(C)C)C(=O)OC(C)(C)C)o1)C(F)(F)F, ether bond, PPh3/DIAD, toluene, 6.1 mM, 6.0 h): 59%

Compound: C[C@@H]1CCOCCC(OCc2ccccc2)(C(F)(F)F)C2=NN=C(O2)c2nc(c(C(F)(F)F)cc2N(C(=O)OC(C)(C)C)C(=O)OC(C)(C)C)O1 (stereo partly shown)
ring closure, isolated yield ([1]; from C[C@H](O)CCOCCC(OCc1ccccc1)(c1nnc(-c2nc(O)c(C(F)(F)F)cc2N(C(=O)OC(C)(C)C)C(=O)OC(C)(C)C)o1)C(F)(F)F, ether bond, PPh3/DIAD, toluene, 10.2 mM, 7.0 h): 57%

Compound: C[C@@H]1COCCC[C@](OCc2ccccc2)(C(F)(F)F)C2=NN=C(O2)c2nc(c(C(F)(F)F)cc2N(C(=O)OC(C)(C)C)C(=O)OC(C)(C)C)O1
ring closure, isolated yield ([1]; from tert-butyl N-[2-[5-[(1R)-1-benzyloxy-4-[(25)-2-hydroxypropoxy]-1-(trifluoromethyl)butyl]-1,3,4-oxadiazol-2-yl]-6-hydroxy-5-(trifluoromethyl)-3-pyridyl]-N-tert-butoxycarbonyl-carbamate, ether bond, PPh3/DIAD, THF, 15.0 mM): 50%

Compound: CC(C)(C)OC(=O)N(C(=O)OC(C)(C)C)c1cc(C(F)(F)F)c2nc1-c1nnc(o1)[C@@](OCc1ccccc1)(C(F)(F)F)CCC=CCC(Cc1ccc(F)cc1)O2 (mixture of isomers)
ring closure, isolated yield ([1]; from C=CCC[C@@](OCc1ccccc1)(c1nnc(-c2nc(OC(CC=C)Cc3ccc(F)cc3)c(C(F)(F)F)cc2N(C(=O)OC(C)(C)C)C(=O)OC(C)(C)C)o1)C(F)(F)F, rcm bond, Zhan-1B, DCE, 2.35 mM, 60.0 °C, 1.0 h): 63%

Compound: CC(C)(C)OC(=O)N(C(=O)OC(C)(C)C)c1cc(C(F)(F)F)c2nc1-c1nnc(o1)[C@@](OCc1ccccc1)(C(F)(F)F)CCC=CC[C@@H](COCc1ccccc1)O2 (mixture of isomers)
ring closure, isolated yield ([1]; from C=CCC[C@@](OCc1ccccc1)(c1nnc(-c2nc(O[C@@H](CC=C)COCc3ccccc3)c(C(F)(F)F)cc2N(C(=O)OC(C)(C)C)C(=O)OC(C)(C)C)o1)C(F)(F)F, rcm bond, Zhan-1B, DCE, 2.78 mM, 60.0 °C, 5.5 h): 45%

Compound: CC(C)(C)OC(=O)Nc1cc(C(F)(F)F)c2nc1-c1nnc(o1)[C@@](OCc1ccccc1)(C(F)(F)F)CC=CCCCO2 (mixture of isomers)
ring closure, isolated yield ([1]; from C=CCCCOc1nc(-c2nnc([C@@](CC=C)(OCc3ccccc3)C(F)(F)F)o2)c(NC(=O)OC(C)(C)C)cc1C(F)(F)F, rcm bond, Zhan-1B, DCE, 6.7 mM, 60.0 °C, 4.0 h): 65%

Compound: CC(C)C1CC=CCC[C@](OCc2ccccc2)(C(F)(F)F)C2=NN=C(O2)c2nc(c(C(F)(F)F)cc2N(C(=O)OC(C)(C)C)C(=O)OC(C)(C)C)O1 (mixture of isomers)
ring closure, isolated yield ([1]; from C=CCC[C@@](OCc1ccccc1)(c1nnc(-c2nc(OC(CC=C)C(C)C)c(C(F)(F)F)cc2N(C(=O)OC(C)(C)C)C(=O)OC(C)(C)C)o1)C(F)(F)F, rcm bond, Zhan-1B, DCE, 2.09 mM, 60.0 °C, 6.0 h): 61%

Compound: CC1(C)CC=CC[C@](OCc2ccccc2)(C(F)(F)F)C2=NN=C(O2)c2nc(c(C(F)(F)F)cc2N(C(=O)OC(C)(C)C)C(=O)OC(C)(C)C)OC1 (mixture of isomers)
ring closure, isolated yield ([1]; from C=CCC(C)(C)COc1nc(-c2nnc([C@@](CC=C)(OCc3ccccc3)C(F)(F)F)o2)c(N(C(=O)OC(C)(C)C)C(=O)OC(C)(C)C)cc1C(F)(F)F, rcm bond, Zhan-1B, toluene, 2.2 mM, 110.0 °C, 4.0 h): 10%

Compound: CC1CC=CCCC(OCc2ccccc2)(C(F)(F)F)C2=NN=C(O2)c2nc(c(C(F)(F)F)cc2NC(=O)OC(C)(C)C)O1 (mixture of isomers)
ring closure, isolated yield ([1]; from C=CCCC(OCc1ccccc1)(c1nnc(-c2nc(OC(C)CC=C)c(C(F)(F)F)cc2NC(=O)OC(C)(C)C)o1)C(F)(F)F, rcm bond, Zhan-1B, DCE, 4.57 mM, 70.0 °C, 16.0 h): 36%

Compound: CCC1CCC=CC[C@](OCc2ccccc2)(C(F)(F)F)C2=NN=C(O2)c2nc(c(C(F)(F)F)cc2N(C(=O)OC(C)(C)C)C(=O)OC(C)(C)C)O1 (mixture of isomers)
ring closure, isolated yield ([1]; from C=CCCC(CC)Oc1nc(-c2nnc([C@@](CC=C)(OCc3ccccc3)C(F)(F)F)o2)c(N(C(=O)OC(C)(C)C)C(=O)OC(C)(C)C)cc1C(F)(F)F, rcm bond, Zhan-1B, DCE, 5.4 mM, 70.0 °C): 91%

Compound: C[C@@H]1CCC=CC(F)(F)C(OCc2ccccc2)C2=NN=C(O2)c2nc(c(C(F)(F)F)cc2[N+](=O)[O-])O1 (mixture of isomers)
ring closure, isolated yield ([1]; from C=CCC[C@@H](C)Oc1nc(-c2nnc(C(OCc3ccccc3)C(F)(F)C=C)o2)c([N+](=O)[O-])cc1C(F)(F)F, rcm bond, Grubbs II, DCE, 1.8 mM, 75.0 °C, 0.92 h): 30%

Compound: C[C@@H]1CCC=CC(O)C(OCc2ccccc2)(C(F)(F)F)C2=NN=C(O2)c2nc(c(C(F)(F)F)cc2N)O1 (mixture of isomers)
ring closure, isolated yield ([1]; from C=CCC[C@@H](C)Oc1nc(-c2nnc(C(OCc3ccccc3)(C(O)C=C)C(F)(F)F)o2)c(N)cc1C(F)(F)F, rcm bond, Zhan-1B, DCE, 3.1 mM, 70.0 °C, 3.5 h): 76%

Compound: C[C@H]1CC=CCC[C@](OCc2ccccc2)(C(F)(F)F)C2=NN=C(O2)c2nc(c(C(F)(F)F)cc2NC(=O)OC(C)(C)C)O1 (mixture of isomers)
ring closure, isolated yield ([1]; from C=CCC[C@@](OCc1ccccc1)(c1nnc(-c2nc(O[C@@H](C)CC=C)c(C(F)(F)F)cc2NC(=O)OC(C)(C)C)o1)C(F)(F)F, rcm bond, Hoveyda-Grubbs II, toluene, 5.08 mM, 100.0 °C, 1.0 h): 22%

Compound: C[C@H]1Oc2nc(c(NC(=O)OC(C)(C)C)cc2C(F)(F)F)C2=NN=C(O2)[C@@](OCc2ccccc2)(C(F)(F)F)CC=CCC1OCc1ccccc1 (mixture of isomers)
ring closure, isolated yield ([1]; from C=CCC(OCc1ccccc1)[C@@H](C)Oc1nc(-c2nnc([C@@](CC=C)(OCc3ccccc3)C(F)(F)F)o2)c(NC(=O)OC(C)(C)C)cc1C(F)(F)F, rcm bond, Zhan-1B, DCE, 6.94 mM, 70.0 °C, 48.0 h): 56%

Compound: O=[N+]([O-])c1cc(C(F)(F)F)c2nc1-c1nnc(o1)[C@@](OCc1ccccc1)(C(F)(F)F)CCC=CCC(C1CC1)O2 (mixture of isomers)
ring closure, isolated yield ([1]; from C=CCC[C@@](OCc1ccccc1)(c1nnc(-c2nc(OC(CC=C)C3CC3)c(C(F)(F)F)cc2[N+](=O)[O-])o1)C(F)(F)F, rcm bond, Zhan-1B, DCE, 1.6 mM, 70.0 °C, 2.25 h): 59%

EC50 [2]: < 500 nM
Compound: [2H]C([2H])([2H])[C@@]1([2H])Oc2nc(c(N)cc2C(F)(F)F)C2=NN=C(O2)[C@@](O)(C(F)(F)F)CCCCC1([2H])[2H] [Compound 39, (6R,12R)-17-amino-11,11,12-trideuterio-12-(trideuteriomethyl)-6,15-bis(trifluoromethyl)-13,19-dioxa-3,4,18-triazatricyclo[12.3.1.12,5]nonadeca-1(18),2,4,14,16-pentaen-6-ol]

EC50 [2]: < 500 nM
Compound: [2H]C1CC[C@@H](C)Oc2nc(c(N)cc2C(F)(F)F)C2=NN=C(O2)[C@@](O)(C(F)(F)F)CC1[2H] (stereo partly drawn) [Compound 44, (6R,12R)-17-amino-8,9-dideuterio-12-methyl-6,15-bis(trifluoromethyl)-13,19-dioxa-3,4,18-triazatricyclo[12.3.1.12,5]nonadeca-1(17),2,4,14(18),15-pentaen-6-ol]

EC50 [2]: > 1000 nM
Compound: C[C@@H]1COCCC[C@](O)(C(F)(F)F)C2=NN=C(O2)c2nc(c(C(F)(F)F)cc2N)O1 [Compound 59, (6R,12R)-17-amino-12-methyl-6,15-bis(trifluoromethyl)-10,13,19-trioxa-3,4,18-triazatricyclo[12.3.1.12,5]nonadeca-1(18),2,4,14,16-pentaen-6-ol]

EC50 [2]: < 500 nM
Compound: CC1(C)CCCC[C@](O)(C(F)(F)F)C2=NN=C(O2)c2nc(c(C(F)(F)F)cc2N)OC1 [Compound 61, (6R)-17-amino-11,11-dimethyl-6,15-bis(trifluoromethyl)-13,19-dioxa-3,4,18-triazatricyclo[12.3.1.12,5]nonadeca-1(18),2,4,14,16-pentaen-6-ol]
